Reference: ChEMBL document CHEMBL2390891, “Discovery of new potent inhibitors for carbonic anhydrase IX by structure-based virtual screening” (Bioorg Med Chem Lett, 2013)

Key:
[1] = target: Carbonic anhydrase 9 (Homo sapiens, UniProt Q16790); experiment: Inhibition of GST-tagged recombinant carbonic anhydrase-9 catalytic domain (unknown origin)
[2] = target: Carbonic anhydrase 2 (Homo sapiens, UniProt P00918); experiment: Inhibition of full length carbonic anhydrase-2 in human erythrocytes; assay type: cell-based
[3] = target: Carbonic anhydrase 1 (Homo sapiens, UniProt P00915); experiment: Inhibition of full length carbonic anhydrase-1 in human erythrocytes; assay type: cell-based
Carbonic anhydrase 1, sequence (P00915 whole entry): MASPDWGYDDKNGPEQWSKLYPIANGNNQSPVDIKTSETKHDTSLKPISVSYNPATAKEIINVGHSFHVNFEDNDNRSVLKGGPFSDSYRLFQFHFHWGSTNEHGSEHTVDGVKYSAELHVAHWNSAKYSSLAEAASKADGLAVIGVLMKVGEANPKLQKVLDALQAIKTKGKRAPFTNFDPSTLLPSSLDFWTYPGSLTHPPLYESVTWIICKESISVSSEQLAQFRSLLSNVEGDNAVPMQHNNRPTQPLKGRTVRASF

IC50 [1] [nM] | IC50 [2] [nM] | IC50 [3] [nM] | Structure (SMILES)
21.6 |  |  | NS(=O)(=O)c1ccc(NC(=O)c2cccc(N3C(=O)CCC3=O)c2)cc1
3.11 | 42 |  | NS(=O)(=O)c1ccc(-n2cccc2/C=C2/C(=O)NN(c3ccc(F)cc3)C2=O)cc1
10.4 | 10.6 | 16.7 | NS(=O)(=O)c1cc(C(=O)NCCOc2ccccc2)c(Cl)cc1Cl
14.9 |  |  | Cc1ccc(N2NC(=O)/C(=C/c3cccn3-c3ccc(S(N)(=O)=O)cc3)C2=O)cc1
18.8 | 153 | 173 | NS(=O)(=O)c1ccc(CCNCc2cccc3ccccc23)cc1
68.5 |  |  | COc1ccc(Cl)cc1CNCCc1ccc(S(N)(=O)=O)cc1
342 |  |  | COc1ccc(CNc2ccc(S(N)(=O)=O)cc2)cc1OC
2.86 |  |  | NS(=O)(=O)c1ccc(NC(=S)NC(=O)c2ccccc2)cc1
4.53 |  |  | NS(=O)(=O)c1ccc(/N=C2/NC(=O)/C(=C/c3cc(O)ccc3Br)S2)cc1
588 | 809 | 1190 | CC1=NN(c2cccc(S(N)(=O)=O)c2)C(=O)C1
19.1 |  |  | CC1=NN(c2ccc(S(N)(=O)=O)cc2)C(=O)/C1=C\C=C\c1ccccc1
199 |  |  | NS(=O)(=O)c1ccc(CNC2CC(=O)N(c3cccc(Br)c3)C2=O)cc1 (stereo not given)
28.4 |  |  | NS(=O)(=O)c1cccc(NS(=O)(=O)c2ccc3c4c(cccc24)C(=O)N3)c1
